Source: patent US6737383B1, “Herbicidal oxadiazolidines” (priority 1999, dated 2004)

Assays:
velvetleaf = assay: Test B pre/postemergence velvetleaf; type: in vivo, Abutilon theophrasti
Summary of the method: (§1)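 Test chemicals in a non-phytotoxic solvent mixture with surfactant were sprayed preemergence onto planted seeds and postemergence onto plants 2 to 18 cm tall (1- to 4-leaf stage). After twelve to sixteen days in a greenhouse, injury was visually rated against untreated controls from 0 (no effect) to 10 (complete control).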

bedstraw = assay: Test B pre/postemergence bedstraw; type: in vivo, Galium aparine
Summary of the method: as §1

blackgrass = assay: Test B pre/postemergence blackgrass; type: in vivo, Alopecurus myosuroides
Summary of the method: as §1

rape = assay: Test B pre/postemergence rape; type: in vivo, Brassica napus
Summary of the method: as §1

pigweed = assay: Test B pre/postemergence pigweed; type: in vivo, Amaranthus retroflexus
Summary of the method: as §1

morningglory = assay: Test B pre/postemergence morningglory; type: in vivo, Ipomoea hederacea
Summary of the method: as §1

soybean = assay: Test B pre/postemergence soybean; type: in vivo, Glycine max
Summary of the method: as §1

wheat = assay: Test B pre/postemergence wheat; type: in vivo, Triticum aestivum
Summary of the method: as §1

smallflower flatsedge = assay: Test B flood test smallflower flatsedge; type: in vivo, Cyperus difformis
Summary of the method: (§2)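 Each value is a visual injury score relative to controls, with 10 meaning complete control and 0 no effect. Evaluation took place twelve to sixteen days after the 2-leaf-stage plants were treated and kept in the greenhouse.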

duck salad = assay: Test B flood test duck salad; type: in vivo, Heteranthera limosa
Summary of the method: as §2

bamyardgrass = assay: Test B flood test barnyardgrass; type: in vivo, Echinochloa crus-galli
Summary of the method: as §2

wild oat = assay: Test B pre/postemergence wild oat; type: in vivo, Avena fatua
Summary of the method: as §1

cocklebur = assay: Test B pre/postemergence cocklebur; type: in vivo, Xanthium strumarium
Summary of the method: as §1

purple nutsedge = assay: Test B pre/postemergence purple nutsedge; type: in vivo, Cyperus rotundus
Summary of the method: as §1

surinam grass = assay: Test B pre/postemergence surinam grass; type: in vivo, Brachiaria decumbens
Summary of the method: as §1

giant foxtail = assay: Test B pre/postemergence giant foxtail; type: in vivo, Setaria faberii
Summary of the method: as §1

[1] = Preemergence, Rate 62 g/ha, scale of 0 to 10 where 0 is no effect and 10 is complete control
[2] = Preemergence, Rate 250 g/ha, scale 0 to 10, 0 is no effect, 10 is complete control
[3] = Preemergence, Rate 500 g/ha, scale 0 to 10 (0 no effect, 10 complete control)
[4] = Rate 125 g/ha, Postemergence, scale 0 to 10
[5] = Rate 500 g/ha, Postemergence, scale 0 to 10
[6] = Preemergence, Rate 125 g/ha, 0 is no effect, 10 is complete control
[7] = Rate 62 g/ha, Postemergence, scale of 0 to 10 where 0 is no effect and 10 is complete control
[8] = Rate 62 g/ha, headed Pre-emergence (flood test species), scale 0 to 10 (0 no effect, 10 complete control)
[9] = Rate 125 g/ha, Pre-emergence, flood test species, scale 0 to 10 where 0 is no effect and 10 is complete control
[10] = Rate 250 g/ha, Pre-emergence, flood-test species, scale 0 to 10, 0 is no effect, 10 is complete control
[11] = Rate 500 g/ha, headed Pre-emergence (flood test species), scale 0 to 10 (0 no effect, 10 complete control)

COc1nc(OC)nc(N(C(=O)n2oc(=O)n(-c3c(C)cccc3C)c2=O)C(C)C)n1 [Compound 180]
0: Velvetleaf plant response rating (velvetleaf; [1]) | Velvetleaf plant response rating (velvetleaf; [2]) | Velvetleaf plant response rating (velvetleaf; [3]) | Velvetleaf plant response rating (velvetleaf; [4]) | Plant response rating (0 to 10; 0 is no effect, 10 is complete control), Velvetleaf (velvetleaf; Rate 250 g/ha, Postemergence) | Velvetleaf plant response rating (velvetleaf; [5]) | Bedstraw plant response rating (bedstraw; [1]) | Bedstraw plant response rating (0 to 10 scale) (bedstraw; [6]) | Bedstraw plant response rating (bedstraw; [2]) | Bedstraw plant response rating (bedstraw; [3]) | Bedstraw plant response rating (bedstraw; [7]) | Bedstraw plant response rating (bedstraw; [4]) | Plant response rating (0 to 10; 0 is no effect, 10 is complete control), Bedstraw (bedstraw; Rate 250 g/ha, Postemergence) | Bedstraw plant response rating (bedstraw; [5]) | Blackgrass plant response rating (blackgrass; [1]) | Blackgrass plant response rating (0 to 10 scale) (blackgrass; [6]) | Blackgrass plant response rating (blackgrass; [2]) | Blackgrass plant response rating (blackgrass; [3]) | Blackgrass plant response rating (blackgrass; [7]) | Blackgrass plant response rating (blackgrass; [4]) | Plant response rating (0 to 10; 0 is no effect, 10 is complete control), Blackgrass (blackgrass; Rate 250 g/ha, Postemergence) | Blackgrass plant response rating (blackgrass; [5]) | Rape plant response rating (rape; [1]) | Rape plant response rating (0 to 10 scale) (rape; [6]) | Rape plant response rating (rape; [2]) | Rape plant response rating (rape; [3]) | Rape plant response rating (rape; [7]) | Rape plant response rating (rape; [4]) | Plant response rating (0 to 10; 0 is no effect, 10 is complete control), Rape (rape; Rate 250 g/ha, Postemergence) | Rape plant response rating (rape; [5]) | Redroot pigweed plant response rating (pigweed; [1]) | Redroot pigweed plant response rating (0 to 10 scale) (pigweed; [6]) | Redroot pigweed plant response rating (pigweed; [2]) | Redroot pigweed plant response rating (pigweed; [3]) | Redroot pigweed plant response rating (pigweed; [7]) | Redroot pigweed plant response rating (pigweed; [4]) | Plant response rating (0 to 10; 0 is no effect, 10 is complete control), Redroot pigweed (pigweed; Rate 250 g/ha, Postemergence) | Redroot pigweed plant response rating (pigweed; [5]) | Morningglory plant response rating (morningglory; [1]) | Morningglory plant response rating (0 to 10 scale) (morningglory; [6]) | Morningglory plant response rating (morningglory; [2]) | Morningglory plant response rating (morningglory; [3]) | Morningglory plant response rating (morningglory; [7]) | Morningglory plant response rating (morningglory; [4]) | Plant response rating (0 to 10; 0 is no effect, 10 is complete control), Morningglory (morningglory; Rate 250 g/ha, Postemergence) | Morningglory plant response rating (morningglory; [5]) | Soybean plant response rating (soybean; [1]) | Soybean plant response rating (0 to 10 scale) (soybean; [6]) | Soybean plant response rating (soybean; [2]) | Soybean plant response rating (soybean; [3]) | Soybean plant response rating (soybean; [7]) | Soybean plant response rating (soybean; [4]) | Plant response rating (0 to 10; 0 is no effect, 10 is complete control), Soybean (soybean; Rate 250 g/ha, Postemergence) | Soybean plant response rating (soybean; [5]) | Wheat plant response rating (wheat; [1]) | Wheat plant response rating (wheat; [2]) | Wheat plant response rating (wheat; [3]) | Wheat plant response rating (wheat; [4]) | Plant response rating (0 to 10; 0 is no effect, 10 is complete control), Wheat (wheat; Rate 250 g/ha, Postemergence) | Wheat plant response rating (wheat; [5]) | S. Flatsedge plant response rating (smallflower flatsedge; [8]) | S. Flatsedge plant response rating (smallflower flatsedge; [9]) | S. Flatsedge plant response rating (smallflower flatsedge; [10]) | S. Flatsedge plant response rating (smallflower flatsedge; Rate 500 g/ha, Pre-emergence, flood test species, scale 0 to 10 (0 no effect, 10 complete control)) | Ducksalad plant response rating (duck salad; [8]) | Ducksalad plant response rating (duck salad; [9]) | Ducksalad plant response rating (duck salad; [10]) | Plant response rating, Ducksalad (duck salad; [11]) | Barnyardgrass plant response rating (bamyardgrass; [8]) | Barnyardgrass plant response rating (bamyardgrass; [9]) | Barnyardgrass plant response rating (bamyardgrass; [10]) | Plant response rating, Barnyardgrass (bamyardgrass; [11]) | Wild oats plant response rating (wild oat; [1]) | Wild oats plant response rating (wild oat; [2]) | Wild oats plant response rating (wild oat; [3]) | Wild oats plant response rating (wild oat; [4]) | Plant response rating (0 to 10; 0 is no effect, 10 is complete control), Wild oats (wild oat; Rate 250 g/ha, Postemergence) | Wild oats plant response rating (wild oat; [5]) | Cocklebur plant response rating (cocklebur; [1]) | Cocklebur plant response rating (0 to 10 scale) (cocklebur; [6]) | Cocklebur plant response rating (cocklebur; [2]) | Cocklebur plant response rating (cocklebur; [3]) | Cocklebur plant response rating (cocklebur; [7]) | Cocklebur plant response rating (cocklebur; [4]) | Plant response rating (0 to 10; 0 is no effect, 10 is complete control), Cocklebur (cocklebur; Rate 250 g/ha, Postemergence) | Cocklebur plant response rating (cocklebur; [5]) | Nutsedge plant response rating (purple nutsedge; [1]) | Nutsedge plant response rating (0 to 10 scale) (purple nutsedge; [6]) | Nutsedge plant response rating (purple nutsedge; [2]) | Nutsedge plant response rating (purple nutsedge; [3]) | Nutsedge plant response rating (purple nutsedge; [7]) | Nutsedge plant response rating (purple nutsedge; [4]) | Plant response rating (0 to 10; 0 is no effect, 10 is complete control), Nutsedge (purple nutsedge; Rate 250 g/ha, Postemergence) | Nutsedge plant response rating (purple nutsedge; [5]) | B. signalgrass plant response rating (surinam grass; [1]) | B. signalgrass plant response rating (0 to 10 scale) (surinam grass; [6]) | B. signalgrass plant response rating (surinam grass; [2]) | B. signalgrass plant response rating (surinam grass; [3]) | B. signalgrass plant response rating (surinam grass; [7]) | B. signalgrass plant response rating (surinam grass; Rate 125 g/ha, Postemergence, scale 0 (no effect) to 10 (complete control)) | Plant response rating, B. signalgrass (surinam grass; Rate 250 g/ha, Postemergence, scale 0 to 10, 0 is no effect, 10 is complete control) | B. signalgrass plant response rating (surinam grass; Rate 500 g/ha, Postemergence, scale 0 to 10, 0 no effect, 10 complete control) | Giant foxtail plant response rating (giant foxtail; [1]) | Giant foxtail plant response rating (0 to 10 scale) (giant foxtail; [6]) | Giant foxtail plant response rating (giant foxtail; [2]) | Giant foxtail plant response rating (giant foxtail; [3]) | Giant foxtail plant response rating (giant foxtail; [7]) | Giant foxtail plant response rating (giant foxtail; [4]) | Plant response rating (0 to 10; 0 is no effect, 10 is complete control), Giant foxtail (giant foxtail; Rate 250 g/ha, Postemergence) | Giant foxtail plant response rating (giant foxtail; [5])
